Data on eight molecules can be found in PubChem BioAssay (NCI).

Among the test systems are NCI-H522 lung; CAKI-1 renal; NCI/ADR-RES ovarian; RPMI-8226 leukemia; MDA-MB-435; BT-549 breast; SNB-19 CNS; OVCAR-4 ovarian; SK-OV-3 ovarian; IGROV1 ovarian.
Common to all, as to assay: inhibition of tumour cell growth, NCI panel, 48 h

Where “and” joins values, the source holds several entries; their conditions need not be identical. Equal entries are not always repeated.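 How tested: cells in 96-well plates exposed to compound for 48 hours at five concentrations. Abbreviation: GI50, concentration required for 50% inhibition of growth. Definition used: TGI = concentration required for complete inhibition of growth.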

Turning to `Nc1c(C(=O)c2cccc(OCCN3CCOCC3)c2)cnn1-c1ccc(F)cc1`, the GI50 with NCI-H522 lung, with CAKI-1 renal, with NCI/ADR-RES ovarian, in the assay on RPMI-8226 leukemia, in the assay on MDA-MB-435 and in the assay with BT-549 breast was more than 25 µM throughout. In addition, the GI50 with SNB-19 CNS, in the assay with OVCAR-4 ovarian, in the assay with SK-OV-3 ovarian and with IGROV1 ovarian was more than 25 µM throughout. Besides, the TGI with NCI-H522 lung, with CAKI-1 renal, with NCI/ADR-RES ovarian, with RPMI-8226 leukemia, with MDA-MB-435 and in the assay on BT-549 breast was more than 25 µM throughout. In addition, the TGI in the assay with SNB-19 CNS, in the assay on OVCAR-4 ovarian, with SK-OV-3 ovarian and in the assay with IGROV1 ovarian was more than 25 µM throughout.
Turning to `O=C1/C(=C/c2ccccc2)SC(=Nc2ccccc2)N1Nc1ccccc1`, the GI50 was 15.5 µM with NCI-H522 lung; 13.7 µM in the assay on CAKI-1 renal; 18.1 µM in the assay with NCI/ADR-RES ovarian; 3.94 µM in the assay on RPMI-8226 leukemia; 15.1 µM with MDA-MB-435; 6.51 µM with BT-549 breast. The GI50 with SNB-19 CNS is 13.5 µM; with OVCAR-4 ovarian, 7.96 µM; in the assay on SK-OV-3 ovarian it was 24.4 µM; in the assay with IGROV1 ovarian, 12.7 µM. Moreover, the TGI in the assay on NCI-H522 lung was 84.8 µM; with CAKI-1 renal, more than 100 µM; in the assay with NCI/ADR-RES ovarian, more than 100 µM; with RPMI-8226 leukemia, 27.4 µM; in the assay on MDA-MB-435, 48 µM; in the assay with BT-549 breast, 35.7 µM. The TGI in the assay on SNB-19 CNS, with OVCAR-4 ovarian, with SK-OV-3 ovarian and with IGROV1 ovarian was more than 100 µM in each case.
For `C=C1C(=O)O[C@H]2[C@H]1CC/C(COC(=O)C(=O)c1c[nH]c3ccc(OC)cc13)=C\CC[C@@]1(C)O[C@@H]21`, the GI50 with NCI-H522 lung is 5.34 µM; in the assay on CAKI-1 renal, 9.23 µM; with NCI/ADR-RES ovarian it was 9.53 µM; in the assay on RPMI-8226 leukemia, 2.21 µM; in the assay on MDA-MB-435, 5.52 µM; in the assay on BT-549 breast, 1.82 µM. In addition, the GI50 in the assay with SNB-19 CNS is 8.97 µM; in the assay with OVCAR-4 ovarian it was 6.93 µM; in the assay with SK-OV-3 ovarian it was 19.8 µM; with IGROV1 ovarian, 3.22 µM. For the same molecule, the TGI with NCI-H522 lung was 9.31 µM; in the assay on CAKI-1 renal, 23.3 µM; with NCI/ADR-RES ovarian, 29.6 µM; with RPMI-8226 leukemia, 10.5 µM; with MDA-MB-435, 10.8 µM; with BT-549 breast, 3.53 µM. In addition, the TGI was 19.6 µM in the assay on SNB-19 CNS, 21.4 µM in the assay on OVCAR-4 ovarian, 35.1 µM in the assay on SK-OV-3 ovarian and 7.64 µM with IGROV1 ovarian.
As for `CS(=O)(=O)N1CCN(Cc2cc3nc(-c4cccc5[nH]ncc45)nc(N4CCOCC4)c3s2)CC1` (tested in a mixture with another compound), the GI50 with NCI-H522 lung was 0.375 µM; with CAKI-1 renal, 0.0769 µM; with NCI/ADR-RES ovarian, 0.284 µM; in the assay with RPMI-8226 leukemia, 3.48 µM; in the assay with MDA-MB-435 it was 0.0425 µM; in the assay on BT-549 breast, 0.0316 µM. The GI50 was 0.328 µM in the assay on SNB-19 CNS, 0.514 µM with OVCAR-4 ovarian, 0.0559 µM in the assay on SK-OV-3 ovarian and 0.0324 µM in the assay on IGROV1 ovarian. Also, the TGI in the assay with NCI-H522 lung is 13 µM; in the assay on CAKI-1 renal, 0.462 µM; with RPMI-8226 leukemia, more than 100 µM; in the assay on MDA-MB-435 it was 0.211 µM; in the assay with BT-549 breast, 0.102 µM; in the assay on SK-OV-3 ovarian, 0.328 µM. This molecule returned a TGI with IGROV1 ovarian of 0.188 µM.
Regarding `Cc1cc(=O)oc2cc(OC(=O)Nc3ccc(Cl)c(Cl)c3)ccc12`, the TGI in the assay on NCI-H522 lung was 54.4 µM; in the assay with CAKI-1 renal, 86.4 µM; in the assay on NCI/ADR-RES ovarian it was more than 100 µM; in the assay on RPMI-8226 leukemia, 36.2 µM; in the assay on MDA-MB-435, 41.2 µM; in the assay with BT-549 breast, 61.5 µM. The TGI in the assay with SNB-19 CNS is 77.2 µM; in the assay with OVCAR-4 ovarian, more than 100 µM; with SK-OV-3 ovarian it was 88.4 µM; in the assay with IGROV1 ovarian it was 60.5 µM.
Consider `COc1cc(-c2oc3c(OC)c(OC)cc(O)c3c(=O)c2OC)ccc1O`, for which the TGI was 31.3 µM and > 50 µM with NCI-H522 lung; more than 50 µM with CAKI-1 renal; more than 50 µM with NCI/ADR-RES ovarian; more than 50 µM with MDA-MB-435; 35.7 µM in the assay on BT-549 breast; more than 100 µM in the assay with SNB-19 CNS. Also, the TGI with OVCAR-4 ovarian is more than 100 µM; in the assay with SK-OV-3 ovarian, 14.3 µM; in the assay with IGROV1 ovarian, > 100 µM and 35.5 µM. For the same molecule, the GI50 in the assay with OVCAR-4 ovarian is > 100 µM and 11.4 µM.
With `N#CC1C(=N)Cc2ccccc2-c2ccccc21` (stereo not drawn), the GI50 with NCI-H522 lung was 5.72 µM; with CAKI-1 renal, 3.21 µM; with NCI/ADR-RES ovarian, 3.33 µM; with RPMI-8226 leukemia, 9.03 µM; with MDA-MB-435 it was 1.2 µM; in the assay on BT-549 breast, 8.64 µM. Besides, the results for the GI50 with SNB-19 CNS, with OVCAR-4 ovarian and with SK-OV-3 ovarian were 9.44 µM, 18 µM and 4.92 µM, respectively. Further, the TGI with NCI-H522 lung was 30.6 µM; in the assay with CAKI-1 renal, 24.2 µM; in the assay on NCI/ADR-RES ovarian, 28.9 µM; in the assay with RPMI-8226 leukemia it was more than 100 µM; in the assay on MDA-MB-435, 3.57 µM; in the assay on BT-549 breast, 38.7 µM. Besides, the TGI in the assay on SNB-19 CNS is more than 100 µM; in the assay with OVCAR-4 ovarian, more than 100 µM; in the assay with SK-OV-3 ovarian, 41.2 µM.
`C=C(CN1CCN(c2cccc(C(F)(F)F)c2)CC1)c1ccc(C(=O)Nc2ccccc2N)cc1`: the GI50 is 6.14 µM with NCI-H522 lung; 0.625 µM in the assay on CAKI-1 renal; 2.34 µM with NCI/ADR-RES ovarian; 0.322 µM in the assay on RPMI-8226 leukemia; 0.156 µM in the assay with MDA-MB-435; 0.332 µM in the assay with BT-549 breast. Besides, the GI50 was 4.11 µM with SNB-19 CNS, 3.94 µM with OVCAR-4 ovarian and 14.2 µM in the assay on IGROV1 ovarian. The TGI in the assay with NCI-H522 lung was more than 16.1 µM; in the assay on CAKI-1 renal, more than 17.6 µM; in the assay on NCI/ADR-RES ovarian it was more than 50 µM; in the assay on RPMI-8226 leukemia, 2.49 µM; in the assay with MDA-MB-435, 0.554 µM; with BT-549 breast, 5.06 µM. Besides, the TGI in the assay on SNB-19 CNS was more than 30.2 µM; in the assay with OVCAR-4 ovarian, 41 µM; in the assay on IGROV1 ovarian, more than 50 µM.
